Measurements as given in the supplement of paper PMC10307832.

Assays:
Assay in all cases: relative viability (nuclei count vs DMSO), 5 days (fraction); higher = more cells survive
FH535 + Decitabine = compound: CC1=C(C=CC(=C1)[N+](=O)[O-])NS(=O)(=O)C2=C(C=CC(=C2)Cl)Cl [FH535] + Nc1ncn([C@H]2C[C@H](O)[C@@H](CO)O2)c(=O)n1 [Decitabine] (partner 2 µM)
Method in brief: (§1)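 Cells from lung cancer lines were seeded into 1536-well plates and, one day later, dosed by pin tool. Treatments were either a single drug or a fixed dose of an anchor drug with five library-drug doses (not always all listed) in √10 steps. After 5 days, nuclei were stained in a one-step fixation (final 0.05% Triton X-100, 1% formaldehyde, 1 ug/ml Hoechst) and counted on 4× images, and relative viability is the treated-to-vehicle nuclei ratio, as the median of duplicate plates.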

FH535 + Foretinib = compound: CC1=C(C=CC(=C1)[N+](=O)[O-])NS(=O)(=O)C2=C(C=CC(=C2)Cl)Cl [FH535] + COc1cc2c(Oc3ccc(NC(=O)C4(C(=O)Nc5ccc(F)cc5)CC4)cc3F)ccnc2cc1OCCCN1CCOCC1 [Foretinib] (partner 0.25 µM)
Method in brief: as §1

FH535 + Navitoclax = compound: CC1=C(C=CC(=C1)[N+](=O)[O-])NS(=O)(=O)C2=C(C=CC(=C2)Cl)Cl [FH535] + CC1(C)CCC(c2ccc(Cl)cc2)=C(CN2CCN(c3ccc(C(=O)NS(=O)(=O)c4ccc(N[C@H](CCN5CCOCC5)CSc5ccccc5)c(S(=O)(=O)C(F)(F)F)c4)cc3)CC2)C1 [Navitoclax] (partner 0.5 µM)
Method in brief: as §1

FH535 + Dasatinib = compound: CC1=C(C=CC(=C1)[N+](=O)[O-])NS(=O)(=O)C2=C(C=CC(=C2)Cl)Cl [FH535] + Cc1nc(Nc2ncc(C(=O)Nc3c(C)cccc3Cl)s2)cc(N2CCN(CCO)CC2)n1 [Dasatinib] (partner 0.075 µM)
Method in brief: as §1

FH535 + Olaparib = compound: CC1=C(C=CC(=C1)[N+](=O)[O-])NS(=O)(=O)C2=C(C=CC(=C2)Cl)Cl [FH535] + O=C(c1cc(Cc2n[nH]c(=O)c3ccccc23)ccc1F)N1CCN(C(=O)C2CC2)CC1 [Olaparib] (partner 8 µM)
Method in brief: as §1

| Cell Line | relative viability (FH535 + Decitabine; first compound 0.04 µM) | relative viability (FH535 + Decitabine; first compound 0.1265 µM) | relative viability (FH535 + Decitabine; first compound 0.4 µM) | relative viability (FH535 + Decitabine; first compound 1.265 µM) | relative viability (FH535 + Foretinib; first compound 0.04 µM) | relative viability (FH535 + Foretinib; first compound 0.1265 µM) | relative viability (FH535 + Foretinib; first compound 0.4 µM) | relative viability (FH535 + Foretinib; first compound 1.265 µM) | relative viability (FH535 + Navitoclax; first compound 0.04 µM) | relative viability (FH535 + Navitoclax; first compound 0.1265 µM) | relative viability (FH535 + Navitoclax; first compound 0.4 µM) | relative viability (FH535 + Navitoclax; first compound 1.265 µM) | relative viability (FH535 + Dasatinib; first compound 0.04 µM) | relative viability (FH535 + Dasatinib; first compound 0.1265 µM) | relative viability (FH535 + Dasatinib; first compound 0.4 µM) | relative viability (FH535 + Dasatinib; first compound 1.265 µM) | relative viability (FH535 + Olaparib; first compound 0.04 µM) | relative viability (FH535 + Olaparib; first compound 0.1265 µM) | relative viability (FH535 + Olaparib; first compound 0.4 µM) | relative viability (FH535 + Olaparib; first compound 1.265 µM) |
| --- | --- | --- | --- | --- | --- | --- | --- | --- | --- | --- | --- | --- | --- | --- | --- | --- | --- | --- | --- | --- |
| PC-14 | 0.218 | 0.231 | 0.242 | 0.223 | 1.03 | 1.06 | 0.982 | 1.02 | 0.972 | 1.1 | 1.01 | 0.941 | 0.282 | 0.287 | 0.251 | 0.245 | 0.242 | 0.324 | 0.297 | 0.233 |
| NCI-H322M | 0.677 | 0.711 | 0.694 | 0.682 | 0.966 | 1 | 0.961 | 0.882 | 1.13 | 1.39 | 1.19 | 1.2 | 0.255 | 0.268 | 0.238 | 0.219 | 0.739 | 0.664 | 0.778 | 0.741 |
| NCI-H1944 | 0.391 | 0.489 | 0.414 | 0.441 | 0.855 | 0.922 | 0.882 | 0.857 |  | 1.01 | 0.975 | 0.924 | 0.179 | 0.209 | 0.222 | 0.204 | 0.382 | 0.453 | 0.431 | 0.308 |
| NCI-H2170 | 0.433 | 0.473 | 0.443 | 0.447 | 1.06 | 0.96 | 0.988 | 0.891 | 0.612 | 0.548 | 0.597 | 0.54 | 0.664 | 0.611 | 0.429 | 0.625 | 0.624 | 0.585 | 0.49 | 0.389 |
| LK-2 | 0.254 | 0.26 | 0.298 | 0.286 | 1.23 | 1.33 | 1.39 | 1.11 | 0.788 | 0.855 | 1 | 1.06 | 0.308 | 0.248 | 0.294 | 0.327 | 0.579 | 0.615 | 0.942 | 0.735 |
| RERF-LC-KJ | 0.645 | 0.707 | 0.55 | 0.467 | 0.927 | 0.895 | 0.869 | 0.787 | 1.15 | 0.784 | 1.11 | 0.719 | 0.845 | 0.805 | 0.747 | 0.502 | 0.904 | 0.891 | 0.856 | 0.516 |
| COR-L23 | 0.302 | 0.424 | 0.444 | 0.314 | 0.936 | 0.818 | 0.781 | 0.517 | 0.992 | 1.14 | 0.886 | 0.567 | 0.447 | 0.437 | 0.38 | 0.222 | 0.375 | 0.35 | 0.309 | 0.244 |
| NCI-H1355 | 0.334 | 0.325 | 0.368 | 0.36 | 1.03 | 1 | 0.904 | 0.582 | 0.862 | 0.998 | 0.88 | 0.66 | 0.723 | 0.692 | 0.57 | 0.605 | 0.649 | 0.796 | 0.709 | 0.476 |
| NCI-H520 | 0.462 | 0.488 | 0.521 | 0.355 | 0.684 | 0.781 | 0.574 | 0.875 | 1.11 | 1.09 | 1.06 | 0.882 | 0.203 | 0.193 | 0.2 | 0.19 | 0.319 | 0.277 | 0.268 | 0.314 |
| NCI-H1993 | 0.563 | 1.13 | 0.357 | 0.613 | 0.76 | 0.753 | 0.741 | 0.575 | 0.946 | 1.01 | 0.838 | 0.695 | 0.526 | 0.597 | 0.474 | 0.427 | 0.941 | 1.03 | 0.983 | 0.581 |
| ChaGo-K-1 | 0.496 | 0.517 | 0.54 | 0.377 | 0.916 | 1.05 | 0.967 | 0.722 | 0.96 | 1.35 | 1.04 | 0.636 | 0.581 | 0.563 | 0.54 | 0.563 | 0.384 | 0.404 | 0.403 | 0.286 |
| HCC-15 | 0.58 | 0.58 | 0.604 | 0.451 | 0.988 | 1.06 | 0.965 | 0.639 | 0.624 | 0.739 | 0.613 | 0.482 | 0.552 | 0.632 | 0.505 | 0.49 | 0.702 | 0.706 | 0.688 | 0.519 |
| NCI-H2347 | 0.594 | 0.678 | 0.614 | 0.572 | 0.792 | 0.865 | 1.03 | 0.701 | 0.684 | 0.792 | 0.871 | 0.705 | 0.298 | 0.292 | 0.294 | 0.261 | 0.525 | 0.595 | 0.553 | 0.498 |
| NCI-H1395 | 0.632 | 0.685 | 0.702 | 0.653 | 0.952 | 0.967 | 0.868 | 0.831 | 1 | 1.23 | 1.06 | 0.895 | 0.361 | 0.402 | 0.413 | 0.344 | 0.491 | 0.46 | 0.437 | 0.414 |
| NCI-H1666 | 0.718 | 0.686 | 0.733 | 0.626 | 0.919 | 0.975 | 0.913 | 0.8 | 0.934 | 0.956 | 1.07 | 0.693 | 0.833 | 0.85 | 0.716 | 0.64 | 0.742 | 0.731 | 0.756 | 0.725 |
